Assays:
hNav1.7 [1] = molecular target: T1, hNav1.7 (Homo sapiens (Human), UniProt Q15858); experiment: Tritiated aryl sulfonamide binding to membranes from cells expressing hNav1.7 and the β1 subunit (competitive binding); settings: membranes with hNav1.7 and β1 subunit; [3H]compound displacement, 18 h, room temperature; read-out: NaV1.7 395 Memb Binding (IC50)
In short: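 Competitive displacement of 100 μM [3H]-labelled tritiated aryl sulfonamide from hNav1.7/β1 membranes, 18 h at room temperature in 100 mM NaCl, 20 mM Tris HCl pH 7.4. Non-specific binding defined with 1 μM unlabelled compound. Filter-bound radioactivity measured by liquid scintillation counting.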

hNav1.7 [2] = molecular target: T1, hNav1.7; experiment: Patch voltage clamp electrophysiology (PatchXpress), HEK-293 cells, inactivated state block; format: cell-based; settings: HEK-293 cells, β1 coexpressed; inactivated state, holding −60 mV; read-out: EP_PX 293 hNav1.7 (IC50)

T1 sequence (Q15858 whole entry, looked up): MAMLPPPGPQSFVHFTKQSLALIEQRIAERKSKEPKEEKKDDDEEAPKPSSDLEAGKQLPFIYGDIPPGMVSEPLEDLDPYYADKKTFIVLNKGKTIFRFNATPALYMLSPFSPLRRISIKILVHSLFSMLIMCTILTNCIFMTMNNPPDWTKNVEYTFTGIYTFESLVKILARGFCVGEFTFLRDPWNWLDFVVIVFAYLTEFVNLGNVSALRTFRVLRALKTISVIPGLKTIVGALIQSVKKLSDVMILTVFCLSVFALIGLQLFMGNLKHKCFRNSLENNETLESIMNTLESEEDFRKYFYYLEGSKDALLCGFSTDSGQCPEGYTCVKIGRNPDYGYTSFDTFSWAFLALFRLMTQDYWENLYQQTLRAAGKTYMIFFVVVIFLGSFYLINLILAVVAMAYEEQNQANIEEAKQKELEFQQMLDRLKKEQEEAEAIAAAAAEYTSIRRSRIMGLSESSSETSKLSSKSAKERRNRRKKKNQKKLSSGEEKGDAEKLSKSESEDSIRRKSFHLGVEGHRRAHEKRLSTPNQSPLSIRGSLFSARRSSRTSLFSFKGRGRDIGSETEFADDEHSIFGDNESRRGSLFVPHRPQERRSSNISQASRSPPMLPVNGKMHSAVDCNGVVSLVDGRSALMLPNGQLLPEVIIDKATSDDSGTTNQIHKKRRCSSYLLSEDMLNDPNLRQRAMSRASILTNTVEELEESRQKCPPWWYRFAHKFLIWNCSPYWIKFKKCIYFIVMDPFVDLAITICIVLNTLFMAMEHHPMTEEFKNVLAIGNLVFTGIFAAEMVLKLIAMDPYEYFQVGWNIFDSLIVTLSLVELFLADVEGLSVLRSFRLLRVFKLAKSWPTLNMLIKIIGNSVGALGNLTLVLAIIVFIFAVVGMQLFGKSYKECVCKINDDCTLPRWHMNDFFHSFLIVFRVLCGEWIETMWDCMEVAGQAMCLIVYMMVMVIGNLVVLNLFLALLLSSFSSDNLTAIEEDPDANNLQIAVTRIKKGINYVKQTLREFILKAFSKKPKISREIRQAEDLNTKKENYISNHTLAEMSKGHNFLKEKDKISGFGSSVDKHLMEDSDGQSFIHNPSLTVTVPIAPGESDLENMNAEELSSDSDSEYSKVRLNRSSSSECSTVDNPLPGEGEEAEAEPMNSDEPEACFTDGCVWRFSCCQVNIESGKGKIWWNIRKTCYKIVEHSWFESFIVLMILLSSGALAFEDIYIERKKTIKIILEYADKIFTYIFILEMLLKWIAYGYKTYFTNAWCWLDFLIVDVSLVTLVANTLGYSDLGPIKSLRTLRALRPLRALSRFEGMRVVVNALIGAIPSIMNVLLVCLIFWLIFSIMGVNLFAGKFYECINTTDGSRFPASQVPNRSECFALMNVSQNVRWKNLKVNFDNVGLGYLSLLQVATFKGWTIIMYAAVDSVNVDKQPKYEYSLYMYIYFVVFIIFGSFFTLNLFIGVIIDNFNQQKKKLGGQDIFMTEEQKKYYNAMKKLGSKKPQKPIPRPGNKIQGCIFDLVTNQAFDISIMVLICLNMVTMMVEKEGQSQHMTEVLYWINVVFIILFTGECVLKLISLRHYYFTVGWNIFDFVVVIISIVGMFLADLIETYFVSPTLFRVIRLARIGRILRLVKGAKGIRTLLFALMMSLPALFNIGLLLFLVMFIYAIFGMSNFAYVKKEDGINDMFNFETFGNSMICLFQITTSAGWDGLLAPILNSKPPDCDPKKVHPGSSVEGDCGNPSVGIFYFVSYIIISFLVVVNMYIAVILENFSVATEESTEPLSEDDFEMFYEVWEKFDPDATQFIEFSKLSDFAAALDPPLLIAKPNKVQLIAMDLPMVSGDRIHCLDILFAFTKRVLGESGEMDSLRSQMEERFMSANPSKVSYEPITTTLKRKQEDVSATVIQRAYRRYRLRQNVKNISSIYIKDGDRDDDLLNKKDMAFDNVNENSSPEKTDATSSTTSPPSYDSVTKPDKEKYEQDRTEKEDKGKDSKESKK
T1 sequence (Q07699 whole entry partner, looked up): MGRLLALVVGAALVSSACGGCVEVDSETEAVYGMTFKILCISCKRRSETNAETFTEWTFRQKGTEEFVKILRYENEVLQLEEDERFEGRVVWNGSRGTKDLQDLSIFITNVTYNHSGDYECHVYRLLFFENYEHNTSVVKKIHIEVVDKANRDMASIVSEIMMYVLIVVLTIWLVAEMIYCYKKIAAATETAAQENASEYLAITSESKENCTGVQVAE

Compound | IC50 (hNav1.7 [1]) | IC50 (hNav1.7 [2])
O=C(NS(=O)(=O)N1CCC1)c1cc(C2CC2)c(OCC23CC4CC(CC(CF)(C4)C2)C3)cc1F | 4 nM | 8 nM
CS(=O)(=O)NC(=O)c1cc(Cl)c(OCC23CC4CC(CC(O)(C4)C2)C3)cc1F | 10000 nM | 2250 nM
O=C(NS(=O)(=O)N1CCC1)c1cc(C2CC2)c(OCC2CCC3(CC2)CC3)cc1F | 4 nM | 6 nM
[2H]C1([2H])C([2H])([2H])C([2H])([2H])C([2H])(COc2cc(F)c(C(=O)NS(=O)(=O)N3CCC3)cc2C2CC2)C([2H])([2H])C1([2H])[2H] | 11 nM | 100 nM
O=C(NS(=O)(=O)C1CC1)c1cc(C2CC2)c(O[C@@H]2C[C@@H]3CC[C@H]2C3)cc1F | 14 nM | 41 nM
O=C(NS(=O)(=O)N1CCC1)c1cc(C2CC2)c(O[C@@H]2C[C@@H]3CC[C@H]2C3)cc1F | 31 nM | 80 nM
CS(=O)(=O)NC(=O)c1cc(C2CC2)c(O[C@@H]2C[C@@H]3CC[C@H]2C3)cc1F | 45 nM | 230 nM
CS(=O)(=O)NC(=O)c1cc(C2CC2)c(O[C@H]2C[C@@H]3CC[C@H]2C3)cc1F | 74 nM | 24 nM
O=C(NS(=O)(=O)N1CCC1)c1cc(F)c(OCC23CC4CC(CC(C4)C2)C3)c(Cl)c1F | 1300 nM | 5200 nM
O=C(NS(=O)(=O)N1CCC1)c1cc(Cl)c(OCC2CCC3(CCC3)CC2)cc1F | 25 nM | 77 nM
CO[C@H]1CCN(S(=O)(=O)NC(=O)c2cc(C3CC3)c(OCC34CC5CC(CC(C5)C3)C4)cc2F)C1 | 29 nM | 300 nM
O=C(NS(=O)(=O)N1CCC1)c1cc(Cl)c(OCC23CC4CC(CC(C4)C2)C3)c(F)c1F | 370 nM | 2300 nM
O=C(NS(=O)(=O)N1CCC1)c1cc(C2CC2)c(O[C@H]2C3CC4CC2C[C@](F)(C4)C3)cc1F | 20 nM | 100 nM
O=C(NS(=O)(=O)C1CC1)c1cc(C2CC2)c(OC2CCC(F)(F)CC2)cc1F | 43 nM | 140 nM
O=C(NS(=O)(=O)N1CCC1)c1cc(Cl)c(OC2CCC(F)(F)CC2)cc1F | 980 nM | 4400 nM
CC1(F)CCC(COc2cc(F)c(C(=O)NS(=O)(=O)N3CCC3)cc2Cl)CC1 (stereo not drawn) | 270 nM | 280 nM
CS(=O)(=O)NC(=O)c1cc(C2CC2)c(OC2CCC3(CC2)CC3)cc1F | 21 nM | 18 nM

Compound | IC50 (hNav1.7 [1]) | IC50 (hNav1.7 [2])
CN(C)S(=O)(=O)NC(=O)c1cc(Cl)c(OCC2CCC3(CC2)CC3)cc1F [Example 88, 5-chloro-N-(dimethylsulfamoyl)-2-fluoro-4-(spiro[2.5]octan-6-ylmethoxy)benzamide] | 121 nM | 
CN(C)S(=O)(=O)NC(=O)c1cc(Cl)c(OCC2CCCCCC2)cc1F [Example 100] | 299 nM | 
CS(=O)(=O)NC(=O)c1cc(Cl)c(OC2CCC(C(F)(F)F)CC2)cc1F (stereo not drawn) [Example 128] | 291 nM | 
CS(=O)(=O)NC(=O)c1cc(Cl)c(OC2CCC3(CCCC3)CC2)cc1F [Example 133] | 125 nM | 
CN(C)S(=O)(=O)NC(=O)c1cc(Cl)c(OC2CCC(C(F)(F)F)CC2)cc1F (stereo not drawn) [Example 138] | 1120 nM | 
CN(C)S(=O)(=O)NC(=O)c1cc(Cl)c(OCCC2CCC2)cc1F [Example 140] | 885 nM | 
O=C(NS(=O)(=O)C1CCC1)c1cc(C2CC2)c(OCC23CC4CC(CC(C4)C2)C3)cc1F [Example 211] | 2 nM | 
CC(O)CS(=O)(=O)NC(=O)c1ccc(OCC23CC4CC(CC(C4)C2)C3)cc1F (stereo not drawn) [Example 215] | 990 nM | 
O=C(NS(=O)(=O)N1CCC1)c1cc(I)c(OCC23CC4CC(CC(C4)C2)C3)cc1F [Example 222] | 9 nM | 
O=C(NS(=O)(=O)N1CC2(COC2)C1)c1cc(C2CC2)c(OCC23CC4CC(CC(C4)C2)C3)cc1F [Example 237] | 67 nM | 
O=C(NS(=O)(=O)C1CC1)c1cc(Cl)c(OCC2CC3CC3C2)cc1F (stereo not drawn) [Example 266] | 49 nM | 
O=C(NS(=O)(=O)C1CC1)c1cc(Cl)c(OCC2CC3C(C2)C3(F)F)cc1F (stereo not drawn) [Example 322] | 81 nM | 
O=C(NS(=O)(=O)N1CCC1)c1cc(C2CC2)c(OCC23CCCCC2C3(F)F)cc1F (stereo not drawn) [Example 434] | 11 nM | 
O=C(NS(=O)(=O)C1CC1)c1cc(C2CC2)c(OC[C@H]2CC[C@H](C(F)(F)F)CC2)cc1F [Example 435, 5-cyclopropyl-N-(cyclopropylsulfonyl)-2-fluoro-4-(((1r,4r)-4-(trifluoromethyl)cyclohexyl)methoxy)benzamide] | 3 nM | 
CC1(COc2cc(F)c(C(=O)NS(=O)(=O)N3CC(F)C3)cc2C2CC2)CCCCC1 [Example 447, 5-cyclopropyl-2-fluoro-N-((3-fluoroazetidin-1-yl)sulfonyl)-4-((1-methylcyclohexyl)methoxy)benzamide] | 4.2 nM | 
O=C(NS(=O)(=O)N1CCC1)c1cc(C2CC2)c(OCC2CC3CC3C2)cc1F (stereo not drawn) [Example 454] | 18 nM | 
trans-5-cyclopropyl-N-(cyclopropylsulfonyl)-2-fluoro-4-((4-(trifluoromethyl)-cyclohexyl)methoxy)benzamide [Example 259] | 20 nM | 

Continued, values first:

IC50 (hNav1.7 [1]) | IC50 (hNav1.7 [2]) | Compound
4 nM | 6 nM | O=C(NS(=O)(=O)N1CCC1)c1cc(C2CC2)c(OCC23CC4CC(C2)C(F)(F)C(C4)C3)cc1F
9 nM | 5 nM | N#CC1(COc2cc(F)c(C(=O)NS(=O)(=O)N3CCC3)cc2C2CC2)C2CC3CC(C2)CC1C3 (stereo not drawn)
4 nM | 8 nM | CC1(C)CCCC(COc2cc(F)c(C(=O)NS(=O)(=O)N3CCC3)cc2C2CC2)C1 (stereo not drawn)
19 nM | 10 nM | COCCS(=O)(=O)NC(=O)c1cc(C2CC2)c(OCC23CCCCC2C3)cc1F (stereo not drawn)
26 nM | 23 nM | O=C(NS(=O)(=O)N1CCC(O)CC1)c1cc(C2CC2)c(OCC23CC4CC(CC(C4)C2)C3)cc1F
1500 nM | 1000 nM | CS(=O)(=O)NC(=O)c1ccc(OC[C@H]2CC[C@H](C(F)(F)F)CC2)cc1F
160 nM | 310 nM | [2H]C1([2H])C([2H])([2H])C([2H])([2H])C([2H])(COc2cc(F)c(C(=O)NS(=O)(=O)N3CCC3)cc2Cl)C([2H])([2H])C1([2H])[2H]
230 nM | 80 nM | O=C(NS(=O)(=O)N1CCC1)c1cc(C2CC2)c(OCCC2CCC(F)(F)CC2)cc1F
70 nM | 32 nM | O=C(NS(=O)(=O)N1CCC1)c1cc(C2CC2)c(O[C@H]2C[C@@H]3CC[C@H]2C3)cc1F
190 nM | 1500 nM | CS(=O)(=O)NC(=O)c1cc(Cl)c(OCC23CC4CC(CC(C4)C2)C3)c(F)c1F
11 nM | 43 nM | O=C(NS(=O)(=O)C1CC1)c1cc(C2CC2)c(O[C@H]2C3CC4CC2C[C@](F)(C4)C3)cc1F
10 nM | 56 nM | O=C(NS(=O)(=O)N1CCC1)c1cc(C2CC2)c(OC2C3CC4CC(C3)CC2C4)cc1F (stereo not drawn)
110 nM | 270 nM | O=C(NS(=O)(=O)N1CCC1)c1cc(C2CC2)c(OC2CCC(F)(F)CC2)cc1F
23 nM | 29 nM | O=C(NS(=O)(=O)N1CCC1)c1cc(C2CC2)c(OC2CCC3(CC2)CC3)cc1F
21 nM | 19 nM | CS(=O)(=O)NC(=O)c1cc(C2CC2)c(OCC2CCC3C(C2)C3(F)F)cc1F (stereo not drawn)
8 nM | 9 nM | O=C(NS(=O)(=O)C1CC1)c1cc(C2CC2)c(OCC2CCC3C(C2)C3(F)F)cc1F (stereo not drawn)
 | 6.9 nM | 4-(adamantan-1-ylmethoxy)-3-chloro-N-(methylsulfonyl)benzamide [Example 12]
234 nM |  | CN(C)S(=O)(=O)NC(=O)c1cc(Cl)c(OCC23CC4CC(CC(F)(C4)C2)C3)cc1F [Example 89, 5-chloro-N-(dimethylsulfamoyl)-2-fluoro-4-[(3-fluoro-1-adamantyl)methoxy]benzamide]
50 nM |  | CS(=O)(=O)NC(=O)c1cc(Cl)c(OCC2(F)C3CC4CC(C3)CC2C4)cc1F (stereo not drawn) [Example 176]
250 nM |  | CNS(=O)(=O)NC(=O)c1cnc(OCC23CC4CC(CC(C4)C2)C3)c(C2CC2)c1 [Example 178]
1200 nM |  | CS(=O)(=O)NC(=O)c1ccc(C2C3CC4CC(C3)CC2C4)c(Cl)c1 (stereo not drawn) [Example 180]
8 nM |  | O=C(NS(=O)(=O)N1CC(F)C1)c1cc(C2CC2)c(OCC2CCCCC2)cc1F [Example 210]
30 nM |  | O=C(NS(=O)(=O)N1CC(F)C1)c1cc(C2CC2)c(OCC2CCC(F)(F)CC2)cc1F [Example 226]
20 nM |  | O=C(NS(=O)(=O)C1CC1)c1cc(C2CC2)c(OCC2CCCC2)cc1F [Example 242]
6 nM |  | C/C=C/c1cc(C(=O)NS(=O)(=O)N2CCC2)c(F)cc1OCC12CC3CC(CC(C3)C1)C2 [Example 399]
4 nM |  | O=C(NS(=O)(=O)C1CC1)c1cc(C2CC2)c(OCC23CCCCC2C3(F)F)cc1F (stereo not drawn) [Example 433, 5-cyclopropyl-N-cyclopropylsulfonyl-4-[(7,7-difluoronorcaran-1-yl)methoxy]-2-fluoro-benzamide]
9 nM |  | O=C(NS(=O)(=O)N1CCC1)c1cc(C2CC2)c(OC[C@H]2CC[C@H](C(F)(F)F)CC2)cc1F [Example 436, N-(azetidin-1-ylsulfonyl)-5-cyclopropyl-2-fluoro-4-(((1r,4r)-4-(trifluoromethyl)cyclohexyl)methoxy)benzamide]
28 nM |  | CS(=O)(=O)NC(=O)c1cc(C2CC2)c(OC2CN(C(c3ccccc3)c3ccccc3)C2)cc1F [Example 439, 4-(1-benzhydrylazetidin-3-yloxy)-5-cyclopropyl-2-fluoro-N-(methylsulfonyl)benzamide]
10 nM |  | CCS(=O)(=O)NC(=O)c1cc(C2CC2)c(OCC2CN(C(c3ccccc3)c3ccccc3)C2)cc1F [Example 441, 4-((1-benzhydrylazetidin-3-yl)methoxy)-5-cyclopropyl-N-(ethylsulfonyl)-2-fluorobenzamide]
